According to publication PMC6274376, “Naturally Inspired Molecules as Multifunctional Agents for Alzheimer’s Disease Treatment” (Molecules, 2016):
Where “and” joins values, the source holds several entries; their conditions need not be identical. Identical values can stand only once.

Assays:
[1] = Cu(II) chelating assay (bathocuproinedisulfonic acid disodium salt, BCS); type: physicochemical
Experimental: Data were expressed as chelating activity percentage (Table 2).
The Cu(II) chelating activity of the compounds was determined using the bathocuproinedisulfonic acid disodium salt (BCS) assay as previously described. Briefly, 50 μL of a 0.25 mM CuSO4 solution were mixed for 2 min with 50 μL of 5–20 µM compound solution in 100 µL of HEPES buffer (15 mM). Hydroxylamine (1 mM) was added after 2 min in order to reduce non-chelated cupric ions into cuprous ones. Finally, 50 μL of BCS (5 mM) or water (blank) was added and the absorbance at 490 nm was measured by spectrophotometry using a multilabel plate reader (VICTOR™ X3, PerkinElmer, Waltham, MA, USA) immediately and at 5 min. Na2EDTA (5–20 µM) was used as a positive control. The ability of the test compounds to chelate cupric ions was calculated using the following equation: chelating activity (%) = [1 − (Abs BCS + compound/Abs BCS) × 100].

[2] = test system: SH-SY5Y cells; assay: Inhibition of Cu(II)-mediated intracellular ROS formation (H2DCF-DA probe); type: cell-based, human; conditions: 5 and 10 µM compound, H2O2 (100 µM)/CuSO4 (25 µM), 30 min
Experimental: Our attention was then focused on the study of the intracellular antioxidant effect mediated by Cu(II) chelation. Therefore, compound 5 was selected to be studied in SH-SH5Y cells for its ability to counteract ROS formation elicited by Fenton reaction with CuSO4 (25 µM) and H2O2 (100 µM), and using 2′,7′-dichlorodihydrofluorescein diacetate (H2DCF-DA) as the fluorescent probe.
The intracellular antioxidant activity of the compounds was evaluated in SH-SY5Y cells as previously described with minor changes. Briefly, the SH-SY5Y cells were seeded in 96-well plates at 3 × 10^4 cells/well and incubated for 24 h at 37 °C in 5% CO2. […] The ROS formation was measured (excitation at 485 nm and emission at 535 nm) using a multilabel plate reader (VICTOR™ X3). The values are expressed as arbitrary fluorescence units (AUF).
Figure 2 Effect of compound 5 on ROS formation elicited by H2O2/CuSO4 in SH-SY5Y cells. […] At the end of the incubation, intracellular ROS formation was determined using a fluorescence probe, as described in the Materials and Methods section. The arbitrary units of fluorescence (AUF) values are shown as mean ± SD of at least three independent experiments (^### P < 0.001 versus untreated cells, *** P < 0.001 versus cells treated with H2O2/CuSO4, at ANOVA with Bonferroni’s Post Hoc Test).

CN(Cc1ccccc1)Cc1ccc(C(=O)c2ccc(OCCOc3ccc(C(=O)/C=C/c4cccc5ccccc45)c(O)c3)cc2)cc1 [Compound 5, E-1-{4-[2-(4-4-Benzylmethylaminomethylbenzoylphenoxy)ethoxy]-2-hydroxyphenyl}-3-(naphthalen-1-yl)-prop-2-en-1-one]
Cu(II)-Chelating Activity ([1]; 5 µM compound, fixed 40 µM CuSO4): 9.48%
Cu(II)-Chelating Activity ([1]; 10 µM compound, fixed 40 µM CuSO4): 13.78%
Cu(II)-Chelating Activity ([1]; 20 µM compound, fixed 40 µM CuSO4, mean ± SD): 19.73% and 19.73 ± 0.30%
ROS formation evoked by H2O2/CuSO4 (arbitrary fluorescence units) [2]: significantly decreased
